What all share (assay): NCI tumour cell line growth inhibition, 48 h
For assay [1], the system named is A549 NSCLC.
For assay [2], the system named is CAKI-1 renal.
Assay [3] relates to COLO 205 colon.
In assay [4] the test system is HCC-2998 colon.
In assay [5] the test system is HOP-62 NSCLC.
Assay [6] deals with HS 578T breast.
The subject of assay [7] is HT29 colon.
Assay [8] has as its system MDA-N.
Assay [9] relates to NCI-H522 lung.
For assay [10], the system named is OVCAR-5 ovarian.
In assay [11] the test system is PC-3 prostate.
Assay [12] has as its system SF-539 CNS.
Assay [13] relates to SK-MEL-28 melanoma.
The subject of assay [14] is SK-MEL-5 melanoma.
Assay [15] deals with SNB-19 CNS.
The subject of assay [16] is SNB-75 CNS.
In assay [17] the test system is SW-620 colon.
Assay [18] relates to TK-10 renal.
The subject of assay [19] is UACC-257 melanoma.
Assay [20] deals with SK-OV-3 ovarian.

Data on 15 molecules can be found in PubChem BioAssay (NCI).

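Test compounds were applied to cells in 96-well plates for 48 hours at 5 doses. Definition used: TGI = concentration required for complete inhibition of growth.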

In the case of `C=CC(Cl)(CBr)CCC(Br)=C(C)C` (centres undefined), the TGI was above 100 µM in assay [1]; 21.2 µM in [2]; 33.4 µM in assay [3]; 44.5 µM in [4]; above 100 µM in assay [5]; 76.2 µM in assay [6]. The TGI was determined as 39.8 µM in [7]; 40.8 µM in [8]; 36.8 µM in assay [9]; 61.2 µM in assay [10]; 52.7 µM in assay [11]; 44 µM in assay [12]. The TGI was 40.7 µM in [13]; 33.7 µM in assay [14]; above 100 µM in assay [15]; 91.4 µM in [16]; 29.2 µM in [17]; 58.8 µM in [18]. Also, the TGI in [19] amounted to 59.5 µM.
Turning to `CCOC(=O)c1cc2c(ccc3cc(C(=O)OCC)[nH]c32)[nH]1`, the TGI is above 100 µM in [1]; above 100 µM in assay [2]; above 100 µM in assay [3]; above 100 µM in assay [4]; 59 µM in [5]; 58.6 µM in assay [6]. The TGI in assay [8] is above 100 µM; in [9] it was above 100 µM; in assay [10], above 100 µM; in assay [11] it was above 100 µM; in assay [12] it was 29.6 µM; in assay [13] it was 25.7 µM. Also, the TGI is 98.4 µM in [14]; above 100 µM in [20]; 74.6 µM in assay [15]; 41.8 µM in assay [16]; above 100 µM in assay [17]; above 100 µM in assay [18]. In assay [19], this molecule showed a TGI above 100 µM.
Turning to `CC(=N/NC(=S)N1CCCCC1)/C(=N\NC(=S)N1CCCCC1)c1ccccc1`, the TGI in assay [1] came to 4.5 µM; in [2], 4.22 µM; in assay [3], 4.06 µM; in assay [4], 4.48 µM; in assay [5] it was 4.43 µM; in assay [6], 4.82 µM. In addition, the TGI in assay [7] worked out at 4.71 µM; in [8], 7.64 µM; in assay [9], 4.18 µM; in [10] it was 3.87 µM; in [11], 3.55 µM; in assay [12] it was 10.6 µM. The TGI was found to be 3.94 µM in [13]; 3.57 µM in [14]; 3.49 µM in assay [20]; 3.64 µM in assay [15]; 3.59 µM in assay [16]; 3.21 µM in [18]. This molecule came in with a TGI in [19] of 4.52 µM.
Consider `CCc1n[nH]c(=S)n1/N=C\c1ccc(-c2ccccc2Cl)o1`, for which the TGI in assay [1] is above 100 µM; in assay [2], above 100 µM; in assay [3], above 100 µM; in [4] it was 83.3 µM; in [5] it was above 100 µM; in assay [6], above 100 µM. Further, the TGI is above 100 µM in assay [7]; 54.1 µM in [8]; 65.8 µM in [9]; above 100 µM in assay [10]; above 100 µM in assay [11]; 61.9 µM in assay [12]. The TGI is 31.2 µM in assay [14]; above 100 µM in [20]; above 100 µM in [15]; above 100 µM in [16]; above 100 µM in assay [17]; above 100 µM in assay [18]. In [19], the TGI was above 100 µM.
As to `O=C(O)CN1CCNCCN(CP(=O)(O)O)CC1`, the TGI in [1], in assay [2], in assay [3], in [4], in [5] and in [6] was above 100 µM in each case. Further, the TGI in assay [8] was above 100 µM; in assay [9] it was above 26.8 µM; in assay [10], above 100 µM; in assay [11] it was above 100 µM; in assay [12], above 100 µM; in assay [13], above 100 µM. Besides, the TGI in [14] is above 66.5 µM; in assay [20], above 100 µM; in assay [15], above 100 µM; in assay [16], above 100 µM; in [17], above 100 µM; in assay [18], above 100 µM. In [19], the TGI is above 100 µM.
Consider `COc1ccc(NC(=O)CC(=O)N2N=C(N3CCCCC3)CC2c2ccccc2)cc1` (centres undefined), for which the TGI in assay [1], in [2], in assay [3], in [4], in [5] and in assay [6] was above 100 µM throughout. For the same molecule, the TGI in [7], in assay [8], in assay [9], in [10], in assay [11] and in assay [12] was above 100 µM each time. For the same molecule, the TGI in [13], in assay [14], in assay [15], in [16], in [17] and in assay [18] was above 100 µM throughout. Further, the TGI in assay [19] was above 100 µM.
As to `COC(=O)/C=C/c1ccc2c(c1)CCC2`, the TGI in assay [1], in [2], in assay [4], in assay [5], in [6] and in assay [7] was above 100 µM throughout. Besides, the TGI in [8], in assay [9], in assay [10], in [11], in assay [12] and in assay [13] was above 100 µM throughout. For the same molecule, the TGI was above 100 µM in assay [14]; above 100 µM in assay [20]; above 100 µM in [15]; 91.4 µM in [16]; above 100 µM in assay [17]; above 100 µM in [18]. In [19], this molecule yielded a TGI above 100 µM.
For `COc1ccc(CN2C[C@H]3[C@@H](CC(=O)O[C@H]3C)CC2=O)cc1`, the TGI in assay [1], in assay [2], in assay [3], in [4], in [5] and in assay [6] was above 100 µM each time. Besides, the TGI in assay [7], in assay [8], in [9], in assay [10], in assay [11] and in assay [13] was above 100 µM each time. Also, the TGI in assay [14], in [20], in assay [15], in assay [16], in assay [17] and in assay [19] was above 100 µM throughout.
Consider `O=C1/C(=C\c2ccc(Cl)cc2Cl)Sc2scc(-c3cccc([N+](=O)[O-])c3)[n+]21`, for which the TGI in assay [1] is 42.3 µM; in assay [2] it was 8.21 µM; in assay [3], 2.56 µM; in [4] it was 20.5 µM; in assay [5] it was 37.1 µM; in assay [6], above 100 µM. Also, the TGI amounted to 10.9 µM in assay [7]; 16.7 µM in [8]; 4.32 µM in [9]; 34.4 µM in [10]; 33.1 µM in [11]; 59.2 µM in [13]. Besides, the TGI in [14] was 7.93 µM; in assay [20], above 56.4 µM; in [15], 32.5 µM; in assay [16], above 69.8 µM; in assay [17], above 32.2 µM; in assay [18] it was 13.3 µM. This molecule displayed a TGI in assay [19] of 18.3 µM.
Regarding `CC1=NN(C(=O)CC(=O)Nc2ccccc2C)C(=O)C1N=Nc1ccc(C(=O)O)cc1` (centres undefined), the TGI in [1], in [2], in [3], in assay [4], in assay [5] and in [6] was above 100 µM in each case. The TGI in assay [7], in [8], in assay [9], in [10], in assay [11] and in assay [12] was above 100 µM in each case. Also, the TGI in assay [13], in assay [14], in [15], in assay [16], in [17] and in [18] was above 100 µM in each case. The molecule also returned a TGI in [19] above 100 µM.
Consider `C=CCCCC1CCCNC1=O` (centres undefined), for which the TGI in assay [1], in [2], in assay [4], in assay [5], in [6] and in assay [7] was above 100 µM each time. Moreover, the TGI in [8], in assay [9], in assay [10], in [11], in [12] and in [13] was above 100 µM throughout. Further, the TGI in assay [14], in assay [20], in [15], in [16], in [17] and in assay [18] was above 100 µM throughout. Further, the TGI in assay [19] is above 100 µM.
As for `CCCCON1C[C@@H](O)C(O)[C@@H](O)C1` (some centres undefined), the TGI in assay [1], in assay [2], in assay [3], in [4], in [5] and in assay [6] was above 100 µM in each case. For the same molecule, the TGI in assay [7], in assay [8], in assay [9], in [10], in assay [11] and in assay [12] was above 100 µM in each case. For the same molecule, the TGI in assay [13], in assay [14], in assay [15], in assay [16], in [17] and in assay [18] was above 100 µM each time. The molecule further registered a TGI in assay [19] above 100 µM.
As to `O=C1CCCCC/C1=C\c1ccc(F)cc1`, the TGI in [1], in assay [2], in [3], in assay [4], in assay [5] and in assay [6] was above 100 µM in each case. In addition, the TGI in [7], in assay [8], in assay [9], in assay [10], in [11] and in assay [13] was above 100 µM each time. Besides, the TGI in assay [14], in [20], in assay [15], in [16], in [17] and in [18] was above 100 µM throughout. In assay [19], the TGI was above 100 µM.
Turning to `Cc1ccc(S(=O)(=O)N2CC3OC(C)(C)OC3C2CO)cc1` (centres undefined), the TGI in [1], in assay [2], in assay [3], in assay [4], in assay [5] and in assay [6] was above 100 µM each time. For the same molecule, the TGI in assay [7], in assay [8], in assay [9], in [10], in [11] and in assay [12] was above 100 µM throughout. Moreover, the TGI in assay [13], in assay [14], in assay [20], in assay [16], in [17] and in assay [18] was above 100 µM in each case. The molecule also displayed a TGI in assay [19] above 100 µM.
On to `Cc1nc(C)c(C(=O)NNC(=O)Cc2ccccc2)cc1C(=O)NNC(=O)Cc1ccccc1`, for which the TGI in assay [1], in assay [2], in assay [3], in [4], in assay [5] and in assay [6] was above 100 µM throughout. Moreover, the TGI in [7], in [8], in assay [9], in assay [10], in assay [11] and in [12] was above 100 µM throughout. The TGI in assay [14], in assay [20], in assay [15], in assay [16], in assay [17] and in assay [18] was above 100 µM in each case. Also, in assay [19], the TGI was above 100 µM.
